# Assay results taken from article PMC8861642, “Cryo-electron microscopy reveals how acetogenins inhibit mitochondrial respiratory complex I” (The Journal of Biological Chemistry, 2022).
# Where two headings read alike, the source gives them in different places.
# How the values were obtained:
# mouse complex I = target: T1, mouse complex I (Mus musculus, UniProt P03888+Q91WD5+Q9DC70); assay: NADH:DQ assay of purified compound 1-copurified mouse complex I, initial rates against control sample; assay type: biochemical; conditions: first 25 s, 5 μM DQ, 0.5 μg ml−1 AOX, 200 μM NADH; after copurification with 200 μM compound 1 and size-exclusion chromatography; SD, n = 3 technical repeats; read-out: inhibition of initial rates (proportion of complex I molecules containing the inhibitor)
# T1 construct: hearts were obtained from C57BL/6 mice; from tissue; host or cells: heart mitochondria of C57BL/6 mice
# Protocol: To better understand the mode of acetogenin binding to complex I, the inhibitor-bound enzyme was prepared for cryo-EM analysis. The acetogenin ortholog inhibitor selected for study here is compound 1; it contains a γ-lactone group, a 12-carbon aliphatic chain (linker) that connects the γ-lactone to a central hydroxylated bis-tetrahydrofuran (THF) group, and a final 10-carbon aliphatic extension (tail) (Figs. 1 and 2). […] Furthermore, substrates (NADH and decylubiquinone, DQ) were added alongside to stimulate complex I turnover, along with an alcohol dehydrogenase and an alternative oxidase for substrate regeneration, to ensure exposure of the high-affinity binding site that may only be present in specific intermediates. Excess compound 1, substrates, and regenerating enzymes were then removed by size-exclusion chromatography to eliminate nonspecifically bound inhibitor molecules. […]
# After ∼5 min at 4 °C incubation, 20 μl of the mixture was removed as a control, and the remaining sample was added to glass vials containing enough dried compound 1, from an ethanol stock, to give a final 200 μM of compound 1, resuspended with gentle pipetting. […] The specific activity of the control [measured in 0.15% asolectin (20 % soy PC), 0.15% CHAPS, and 200 μM DQ] was 9.6 ± 0.4 μmol min^−1 mg^−1.
# [1] = target: complex I (NADH:ubiquinone oxidoreductase) in bovine submitochondrial particles; conditions: internal bullatacin control, cited from earlier work
# [2] = ref 33, read-out: IC50* (complex I inhibition)
# [3] = ref 34, read-out: IC50† (complex I inhibition)
Molecule,inhibition at 200 µM (mouse complex I),"IC50 [1, 2]","IC50 [1, 3]",IC50† (complex I inhibition) ([1]; ref 34)
CCCCCCCCCCC(O)C1CCC(C2CCC(C(O)CCCCCCCCCCCCC3=CC(C)OC3=O)O2)O1 (centres unmarked) [Compound 1],77 ± 5%,1.3 nM,1.3 ± 0.1 nM,
CCCCCCCCCCC(O)C1CCC(C2CCC(C(O)CCCCCCCCCCCCC3=CCOC3=O)O2)O1 (centres unmarked) [Compound 2],,1.2 ± 0.1 nM,,
CCCCCCCCCCC(O)C1CCC(C2CCC(C(O)CCCCCCCCCCCCC3=CCC(C)OC3=O)O2)O1 (centres unmarked) [Compound 3],,1.3 ± 0.1 nM,,
CCCCCCCCCCC(O)C1CCC(C2CCC(C(CCCCCCCCCCCCC3=CC(C)OC3=O)OC(C)=O)O2)O1 (centres unmarked) [Compound 7],,2.1 nM,,
CCCCCCCCCCC(OC(C)=O)C1CCC(C2CCC(C(CCCCCCCCCCCCC3=CC(C)OC3=O)OC(C)=O)O2)O1 (centres unmarked) [Compound 8],,7.2 nM,,
CC1C=C(CCCCCCCCCCCCC(O)C2CCC(C3CCC(C(O)CCCCCCCCCCCCC4=CC(C)OC4=O)O3)O2)C(=O)O1 (centres unmarked) [Compound 9],,,1.2 nM,
CC1C=C(CCCCCCCCCCCCC(O)C2CCC(C3CCC(C(O)CCCCCCCCCCCCC4=CC(C)OC4=O)O3)O2)C(=O)O1 (centres unmarked) [Compound 11],,,1.2 ± 0.2 nM,
CC(=O)OC(CCCCCCCCCCCCC1=CC(C)OC1=O)C1CCC(C2CCC(C(O)CCCCCCCCCCCCC3=CC(C)OC3=O)O2)O1 (centres unmarked) [Compound 12],,,2 ± 0.2 nM,
CC(=O)OC(CCCCCCCCCCCCC1=CC(C)OC1=O)C1CCC(C2CCC(C(CCCCCCCCCCCCC3=CC(C)OC3=O)OC(C)=O)O2)O1 (centres unmarked) [Compound 13],,,18 ± 2 nM,maintains its high affinity
bullatacin [reference compound],,0.9 ± 0.2 nM,1.2 ± 0.2 nM,
